Tested on: SEM cells
Assay: cell viability relative to DMSO control; higher = less cytotoxic
Details: 48 h
Outline: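 Cells were incubated for 48 h at 37°C before CellTiter-Glo One luminescence was read. The cells were NOMO1 or SEM (500 cells/well) or P12-Ichikawa (1000 cells/well) leukemia cells, adapted for at least four passages in each medium and seeded in 1536-well plates (5 μl). Dosing used library compounds in DMSO applied by pin over 11 threefold points, 47 μM to 0.79 nM. Viability is the per-plate percentage of DMSO wells, with cell-free wells as background.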

[1] = HPLM + 10% dialyzed FBS, 0.000781 µM
[2] = HPLM + 10% dialyzed FBS, 0.00234 µM
[3] = HPLM + 10% dialyzed FBS, 0.00702 µM
[4] = HPLM + 10% dialyzed FBS, 0.0211 µM
[5] = HPLM + 10% dialyzed FBS, 0.0632 µM
[6] = HPLM + 10% dialyzed FBS, 0.19 µM
[7] = HPLM + 10% dialyzed FBS, 0.569 µM
[8] = HPLM + 10% dialyzed FBS, 1.71 µM
[9] = HPLM + 10% dialyzed FBS, 5.12 µM
[10] = HPLM + 10% dialyzed FBS, 15.4 µM
[11] = HPLM + 10% dialyzed FBS, 46.1 µM
[12] = RPMI 5 mM glucose + 10% FBS, 0.000781 µM
[13] = RPMI 5 mM glucose + 10% FBS, 0.00234 µM
[14] = RPMI 5 mM glucose + 10% FBS, 0.00702 µM
[15] = RPMI 5 mM glucose + 10% FBS, 0.0211 µM
[16] = RPMI 5 mM glucose + 10% FBS, 0.0632 µM
[17] = RPMI 5 mM glucose + 10% FBS, 0.19 µM
[18] = RPMI 5 mM glucose + 10% FBS, 0.569 µM
[19] = RPMI 5 mM glucose + 10% FBS, 1.71 µM
[20] = RPMI 5 mM glucose + 10% FBS, 5.12 µM
[21] = RPMI 5 mM glucose + 10% FBS, 15.4 µM
[22] = RPMI 5 mM glucose + 10% FBS, 46.1 µM
[23] = RPMI 5 mM glucose + 10% dialyzed FBS, 0.000781 µM
[24] = RPMI 5 mM glucose + 10% dialyzed FBS, 0.00234 µM
[25] = RPMI 5 mM glucose + 10% dialyzed FBS, 0.00702 µM
[26] = RPMI 5 mM glucose + 10% dialyzed FBS, 0.0211 µM
[27] = RPMI 5 mM glucose + 10% dialyzed FBS, 0.0632 µM
[28] = RPMI 5 mM glucose + 10% dialyzed FBS, 0.19 µM
[29] = RPMI 5 mM glucose + 10% dialyzed FBS, 0.569 µM
[30] = RPMI 5 mM glucose + 10% dialyzed FBS, 1.71 µM
[31] = RPMI 5 mM glucose + 10% dialyzed FBS, 5.12 µM
[32] = RPMI 5 mM glucose + 10% dialyzed FBS, 15.4 µM
[33] = RPMI 5 mM glucose + 10% dialyzed FBS, 46.1 µM

Structure (SMILES)	cell viability [1] [%]	cell viability [2] [%]	cell viability [3] [%]	cell viability [4] [%]	cell viability [5] [%]	cell viability [6] [%]	cell viability [7] [%]	cell viability [8] [%]	cell viability [9] [%]	cell viability [10] [%]	cell viability [11] [%]	cell viability [12] [%]	cell viability [13] [%]	cell viability [14] [%]	cell viability [15] [%]	cell viability [16] [%]	cell viability [17] [%]	cell viability [18] [%]	cell viability [19] [%]	cell viability [20] [%]	cell viability [21] [%]	cell viability [22] [%]	cell viability [23] [%]	cell viability [24] [%]	cell viability [25] [%]	cell viability [26] [%]	cell viability [27] [%]	cell viability [28] [%]	cell viability [29] [%]	cell viability [30] [%]	cell viability [31] [%]	cell viability [32] [%]	cell viability [33] [%]
CC(C)C1CCC(C(=O)N[C@H](Cc2ccccc2)C(=O)O)CC1 (stereo not given in full)	92.5	93.8	91.7	108	71.1	26.3	82.7	97.6	85.2	80.3	78.5	108	94.1	90	112	80.9	21.2	62.7	85.6	98	95.4	77.8	108	104	103	102	75.4	21.7	84.3	88.7	98.5	93.1	96.8
CO[C@@H](C(=O)N1Cc2[nH]nc(NC(=O)c3ccc(N4CCN(C)CC4)cc3)c2C1)c1ccccc1	95.5	84.2	103	90.9	71.1	55.6	38.4	24.6	28.3	24.3	24.9	107	92.3	103	94.6	59.3	38.9	23.5	20.5	19.7	15	18.7	87.9	97.1	87.4	90.7	59.8	39.5	32.2	20.2	25.1	20	16.4
O=C(O)c1cc(O)c2c(c1)C(=O)c1cccc(O)c1C2=O	112	113	103	108	110	116	89.7	111	96.8	92.9	91.9	105	108	105	106	104	120	108	111	97.9	92.9	84.4	119	116	108	117	118	105	111	113	116	96.6	84.9
CCC(CCCC)COC(=O)C(\C#N)=C(\c1ccccc1)c2ccccc2 (stereo not given)	91.6	55.3	90.3	89.3	98.8	93.9	95.9	90.6	110	99.6	86.3	79.8	44	99	86.1	94.1	96.6	96.2	97.8	95.6	91.6	88.9	88.3	46.3	103	99.7	99.9	90.3	107	86	91.5	106	107
CN(C)c1nc(Cc2ccc(NC(=O)c3ccc(C(F)(F)F)cc3)cc2)nc(N(C)C)c1CC(=O)O	104	107	106	100	116	100	123	112	125	116	83.4	113	99.4	101	93.7	111	82.8	118	93.4	110	100	74.7	99.1	118	102	108	121	117	113	115	109	105	90
Cc1ccc([C@@H]2O[C@H](CO)[C@@H](O)[C@H](O)[C@H]2O)cc1Cc1ccc(-c2ccc(F)cc2)s1	108	112	117	112	130	114	119	115	110	125	101	109	117	112	122	114	117	123	121	111	118	69.5	113	103	106	118	132	119	109	98.7	107	116	71.2
CO[C@H]1CCC(O[C@H]2C[C@H]([C@]3(C)CC[C@]4(C[C@H](O)[C@@H](C)[C@@H]([C@@H](C)/C=C(\C)C(=O)[C@H](C)C[C@H](C)C(=O)[O-])O4)O3)O[C@]3(O[C@@H]([C@H]4O[C@@](O)(CO)[C@H](C)C[C@@H]4C)C[C@@H]3C)[C@@H]2C)O[C@@H]1C (stereo not given in full)												121	119	112	108	117	128	98.3	66.6	29.8	18.7	14.3											
C[C@H](CCC(=O)O)[C@H]1CC[C@H]2[C@@H]3[C@H](O)C[C@@H]4C[C@H](O)CC[C@]4(C)[C@H]3CC[C@]12C	79.7	80.7	96.3	80.3	99.9	84	95	92.5	93.5	84.1	75.5	75.4	81.9	90.3	96.9	87.6	76.5	91	80.2	99.1	81.9	67	87.5	93.7	105	95	85.5	79.4	91.4	92.2	95.3	95.1	79.7
Cc1cc(Nc2cc(N3CCN(C)CC3)nc(/C=C/c3ccccc3)n2)n[nH]1	83.9	109	112	96.5	95.4	60.3	36.6	6.67	5.57	4.53	5.51	86.5	108	94.1	112	93.8	60.6	29.5	5.23	4.53	3.57	4.68	100	112	97.1	112	95.3	57.8	28.2	6.13	4.41	3.5	5.17
CC1(C)SCCN([S+](=O)([O-])c2ccc(OCC#CCO)cc2)[C@H]1C(=O)NO	97.8	96.3	109	112	104	99.6	102	89.5	91.3	86.6	80.8	129	116	115	123	109	107	105	104	106	91.4	88.1	105	109	105	103	91.1	94.3	107	90.1	78.9	74.1	69.5
CC/C=C\C[C@H]1C(=O)CC[C@@H]1CC(=O)OC	76	118	130	130	125	118	125	118	113	114	103	60.3	109	101	114	109	100	126	102	99.3	109	88.9	78	112	137	147	153	127	135	120	122	112	120
CCc1ccc(OCc2ccccc2C(=O)Nc2ccc3nc(C)cc(N)c3c2)cc1	75.2	102	98.9	90.2	104	117	110	109	26.6	11.3	8.33	98.5	102	98.9	99.3	112	111	122	116	109	20.7	7.66	94.4	107	91.4	107	103	114	111	102	111	22.1	7.91
Clc2cccc(Cl)c2\N=C1/NCCN1	76.6	98.6	28.8	105	90.8	116	119	108	114	122	113	92.7	103	9.62	119	106	115	105	112	112	119	110	93.3	116	28.5	126	131	132	127	130	131	117	138
CCOC(=O)N1CCN(/[N+]([O-])=N/Oc2cc(O/N=[N+](\[O-])N3CCN(C(=O)OCC)CC3)c([N+](=O)[O-])cc2[N+](=O)[O-])CC1	90.7	86.6	93	98.6	117	115	122	74.4	119	117	116	129	110	118	137	142	138	136	101	142	145	128	117	113	130	145	166	138	134	108	113	142	122

From the supplement of paper PMC11451515
